{"source": "ChEMBL document CHEMBL1201862", "about": "“PubChem BioAssay data set” (2004)", "key": {"[1]": {"target": "T1, RNA-binding protein pos-1 (Caenorhabditis elegans, UniProt G5EF15)", "T1 sequence (G5EF15 whole entry)": "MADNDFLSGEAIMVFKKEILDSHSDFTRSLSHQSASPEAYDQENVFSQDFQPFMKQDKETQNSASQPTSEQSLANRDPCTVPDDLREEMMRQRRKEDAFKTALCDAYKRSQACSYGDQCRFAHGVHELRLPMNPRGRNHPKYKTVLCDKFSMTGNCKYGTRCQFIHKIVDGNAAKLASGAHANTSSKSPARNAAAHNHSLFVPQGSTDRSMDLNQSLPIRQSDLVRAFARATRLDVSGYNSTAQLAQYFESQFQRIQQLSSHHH", "test": "inhibitors of POS-1/mex-3 RNA binding, dose response, biochemical, fluorescence polarization (AID 1964);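 note: purified POS-1 fused to maltose binding protein made in E. coli; potency of compounds blocking POS-1 binding to fluorescent RNA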"}, "[2]": {"target": "T2, Zinc finger protein mex-5 (Caenorhabditis elegans, UniProt Q9XUB2)", "T2 sequence (Q9XUB2 whole entry)": "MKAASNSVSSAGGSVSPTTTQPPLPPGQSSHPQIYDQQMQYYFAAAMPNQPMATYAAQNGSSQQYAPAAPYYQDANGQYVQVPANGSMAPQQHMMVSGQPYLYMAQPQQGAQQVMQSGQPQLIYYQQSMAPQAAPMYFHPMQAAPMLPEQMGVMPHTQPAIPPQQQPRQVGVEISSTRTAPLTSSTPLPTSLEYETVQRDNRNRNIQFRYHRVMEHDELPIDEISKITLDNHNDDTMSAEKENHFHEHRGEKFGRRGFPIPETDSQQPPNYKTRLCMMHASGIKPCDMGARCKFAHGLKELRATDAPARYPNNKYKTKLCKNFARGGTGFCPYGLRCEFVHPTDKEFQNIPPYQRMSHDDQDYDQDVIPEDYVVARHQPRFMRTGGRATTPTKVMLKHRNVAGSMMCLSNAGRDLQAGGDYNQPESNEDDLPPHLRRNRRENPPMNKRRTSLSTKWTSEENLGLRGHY", "test": "MEX-5/TCR-2 RNA interaction inhibitors, dose response, biochemical, C. elegans, fluorescence polarization (AID 1960)"}, "[3]": {"target": "26S proteasome non-ATPase regulatory subunit 14 (Homo sapiens, UniProt O00487)", "sequence (O00487 whole entry)": "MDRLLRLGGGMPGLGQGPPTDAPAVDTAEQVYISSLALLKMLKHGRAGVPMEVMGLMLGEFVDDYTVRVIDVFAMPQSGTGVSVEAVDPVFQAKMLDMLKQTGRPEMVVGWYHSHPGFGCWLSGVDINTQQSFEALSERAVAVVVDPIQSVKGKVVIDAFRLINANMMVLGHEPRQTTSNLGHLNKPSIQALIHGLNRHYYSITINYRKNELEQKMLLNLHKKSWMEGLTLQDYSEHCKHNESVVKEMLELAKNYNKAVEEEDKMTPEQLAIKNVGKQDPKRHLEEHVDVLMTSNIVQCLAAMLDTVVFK", "test": "inhibition of proteasome subunit RPN11 – biochemical, fluorescence polarization, uHTS hits, confirmation (AID 602368)", "type": "functional"}, "[4]": {"target": "72 kDa type IV collagenase (Homo sapiens, UniProt P08253)", "test": "Dose Response validation of uHTS RPN11 inhibitor hits using a MMP-2 Fluorescence assay.", "type": "functional"}, "Prothrombin": {"target": "Prothrombin (Bos taurus, UniProt P00735)", "test": "thrombin inhibition, dose response, biochemical, fluorescence polarization, uHTS hits (AID 602369)", "type": "functional"}, "[5]": {"target": "DNA dC->dU-editing enzyme APOBEC-3G (Homo sapiens, UniProt Q9HC16)", "sequence (Q9HC16 whole entry)": "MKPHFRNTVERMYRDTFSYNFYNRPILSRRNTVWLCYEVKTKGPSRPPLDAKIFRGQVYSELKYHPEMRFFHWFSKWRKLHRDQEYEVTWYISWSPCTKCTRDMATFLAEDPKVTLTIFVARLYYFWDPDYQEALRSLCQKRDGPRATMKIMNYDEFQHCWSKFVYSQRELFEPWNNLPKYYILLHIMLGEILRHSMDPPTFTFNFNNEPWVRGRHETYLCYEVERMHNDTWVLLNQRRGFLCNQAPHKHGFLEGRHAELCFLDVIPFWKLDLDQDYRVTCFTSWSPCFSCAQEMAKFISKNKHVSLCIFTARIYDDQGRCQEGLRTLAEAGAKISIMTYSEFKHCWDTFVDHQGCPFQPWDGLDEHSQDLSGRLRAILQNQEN", "test": "APOBEC3G deaminase inhibitors, SAR follow-up, biochemical, fluorescence, single-stranded DNA substrate (AID 602136)", "type": "functional", "conditions": "read-out: IC50_Mean"}, "[6]": {"target": "DNA dC->dU-editing enzyme APOBEC-3A (Homo sapiens, UniProt P31941)", "sequence (P31941 whole entry)": "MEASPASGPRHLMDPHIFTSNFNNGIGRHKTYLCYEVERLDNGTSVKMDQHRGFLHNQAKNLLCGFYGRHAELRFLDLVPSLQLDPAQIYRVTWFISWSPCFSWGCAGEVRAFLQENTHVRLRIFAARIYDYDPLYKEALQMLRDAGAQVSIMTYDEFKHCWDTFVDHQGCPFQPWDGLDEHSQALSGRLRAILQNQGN", "test": "SAR analysis of small molecule inhibitors of APOBEC3A DNA Deaminase via a fluorescence-based single-stranded DNA deaminase assay.", "type": "functional", "conditions": "read-out: IC50_Mean"}, "[7]": {"tested_on": "Streptococcus sp. 'group A'", "test": "growth inhibition of control SK(-) GAS strain, dose response, counter-screen for streptokinase expression inhibitor project, luminescence, kanamycin, BacTiterGlo, confirmation (AID 1900)", "type": "functional, organism-based"}, "Streptokinase A": {"target": "T3, Streptokinase A (Streptococcus pyogenes serotype M1, UniProt P10520)", "T3 sequence (P10520 whole entry)": "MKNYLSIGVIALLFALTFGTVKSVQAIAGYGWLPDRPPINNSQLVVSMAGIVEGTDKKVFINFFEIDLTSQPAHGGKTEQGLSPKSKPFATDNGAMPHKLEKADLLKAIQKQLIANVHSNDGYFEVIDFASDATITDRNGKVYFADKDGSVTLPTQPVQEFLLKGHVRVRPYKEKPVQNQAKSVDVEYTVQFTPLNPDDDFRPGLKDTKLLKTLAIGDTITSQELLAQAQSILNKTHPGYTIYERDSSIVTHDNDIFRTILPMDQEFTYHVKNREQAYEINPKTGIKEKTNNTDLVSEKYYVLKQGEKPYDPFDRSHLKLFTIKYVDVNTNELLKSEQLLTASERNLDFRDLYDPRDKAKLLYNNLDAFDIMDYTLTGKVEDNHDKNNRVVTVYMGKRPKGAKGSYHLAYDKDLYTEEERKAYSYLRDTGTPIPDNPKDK", "test": "S. pyogenes streptokinase expression inhibitors, potency, dose response, plasminogen activation absorbance, OD405 (AID 1914);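 note: secreted streptokinase activity via plasminogen activation per viability signal from cell pellet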", "type": "functional, Streptococcus pyogenes M1 GAS"}, "Streptococcus": {"tested_on": "Streptococcus", "test": "Group A Streptococcus viability loss, dose response, counter-screen for streptokinase expression inhibitor project, luminescence, BacTiterGlo (AID 1915);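 note: potency for reduction of bacterial viability or growth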", "type": "functional, organism-based"}, "[8]": {"test": "Luminescence Cell-Based Dose Retest to Confirm Inhibitors of Cancer Stem Cells. [Related pubchem assays (depositor defined):AID2717, AID2721]", "type": "functional", "conditions": "Homo sapiens"}, "[9]": {"target": "Glycogen synthase kinase-3 alpha (Homo sapiens, UniProt P49840)", "sequence (P49840 whole entry)": "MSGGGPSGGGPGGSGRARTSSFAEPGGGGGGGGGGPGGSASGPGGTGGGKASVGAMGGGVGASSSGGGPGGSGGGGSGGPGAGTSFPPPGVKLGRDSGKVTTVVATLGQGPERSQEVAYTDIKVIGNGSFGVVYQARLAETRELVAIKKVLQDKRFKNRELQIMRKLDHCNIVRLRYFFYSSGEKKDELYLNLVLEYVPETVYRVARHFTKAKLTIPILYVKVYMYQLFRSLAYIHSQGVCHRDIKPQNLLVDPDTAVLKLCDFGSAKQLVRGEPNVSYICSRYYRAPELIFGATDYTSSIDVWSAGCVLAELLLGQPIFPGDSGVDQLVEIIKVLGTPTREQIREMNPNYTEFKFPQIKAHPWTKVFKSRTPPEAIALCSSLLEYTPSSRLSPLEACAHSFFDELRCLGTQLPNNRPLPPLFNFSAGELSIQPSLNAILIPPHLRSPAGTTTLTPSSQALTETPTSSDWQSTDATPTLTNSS", "test": "Inhibition of Human GSK-3 alpha Activity Measured in Biochemical System Using Microfluidics - 2063-06_Inhibitor_Dose_DryPowder_Activity_Set2. [Related pubchem assays (depositor defined):AID2709]"}, "[10]": {"target": "Glycogen synthase kinase-3 beta (Homo sapiens, UniProt P49841)", "sequence (P49841 whole entry)": "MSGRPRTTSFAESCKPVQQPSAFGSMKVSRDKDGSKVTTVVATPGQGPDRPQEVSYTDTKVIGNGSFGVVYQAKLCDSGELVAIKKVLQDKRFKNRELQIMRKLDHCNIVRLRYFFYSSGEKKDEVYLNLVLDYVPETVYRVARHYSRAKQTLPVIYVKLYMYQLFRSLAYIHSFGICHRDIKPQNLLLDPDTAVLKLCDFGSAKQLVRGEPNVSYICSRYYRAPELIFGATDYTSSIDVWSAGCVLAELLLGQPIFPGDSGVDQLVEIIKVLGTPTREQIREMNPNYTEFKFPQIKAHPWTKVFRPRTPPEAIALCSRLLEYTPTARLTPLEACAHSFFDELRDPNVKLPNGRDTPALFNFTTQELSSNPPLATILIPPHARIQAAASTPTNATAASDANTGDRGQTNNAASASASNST", "test": "Inhibition of Human GSK-3 beta Activity Measured in Biochemical System Using Microfluidics - 2063-05_Inhibitor_Dose_DryPowder_Activity_Set2. [Related pubchem assays (depositor defined):AID2709]"}, "[11]": {"target": "Cyclin-dependent kinase 5/CDK5 activator 1 (Homo sapiens, UniProt Q00535)", "test": "CDK5-p25 kinase inhibitors, specificity check, dose response, selectivity assay for GSK-3 alpha inhibitor project, biochemical, microfluidic mobility shift, dry powder (AID 588430)"}, "LIM domain kinase 1": {"target": "LIM domain kinase 1 (Homo sapiens, UniProt P53667)", "sequence (P53667 whole entry, the tested form may be a part)": "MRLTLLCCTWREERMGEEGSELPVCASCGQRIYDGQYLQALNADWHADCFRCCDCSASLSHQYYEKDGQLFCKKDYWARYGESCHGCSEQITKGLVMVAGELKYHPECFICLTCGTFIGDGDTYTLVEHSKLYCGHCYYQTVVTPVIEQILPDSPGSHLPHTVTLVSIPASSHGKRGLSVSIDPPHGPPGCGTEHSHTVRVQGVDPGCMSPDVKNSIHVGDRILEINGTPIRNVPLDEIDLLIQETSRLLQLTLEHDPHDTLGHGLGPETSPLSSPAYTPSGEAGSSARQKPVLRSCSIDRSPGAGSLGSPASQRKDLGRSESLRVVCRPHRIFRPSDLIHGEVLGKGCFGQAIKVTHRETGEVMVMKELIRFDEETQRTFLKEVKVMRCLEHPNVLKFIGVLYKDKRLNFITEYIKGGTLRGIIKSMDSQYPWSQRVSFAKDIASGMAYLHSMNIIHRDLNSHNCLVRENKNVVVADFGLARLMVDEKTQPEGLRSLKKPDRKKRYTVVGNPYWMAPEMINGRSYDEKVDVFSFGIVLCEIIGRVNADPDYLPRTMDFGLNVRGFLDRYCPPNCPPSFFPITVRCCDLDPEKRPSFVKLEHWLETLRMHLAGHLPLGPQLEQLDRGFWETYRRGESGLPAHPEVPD", "test": "Navigating the Kinome. Panel member name: LIMK1", "type": "functional"}, "[12]": {"target": "T4, Serine/threonine-protein kinase Chk1 (Homo sapiens, UniProt O14757)", "T4 sequence (O14757 whole entry)": "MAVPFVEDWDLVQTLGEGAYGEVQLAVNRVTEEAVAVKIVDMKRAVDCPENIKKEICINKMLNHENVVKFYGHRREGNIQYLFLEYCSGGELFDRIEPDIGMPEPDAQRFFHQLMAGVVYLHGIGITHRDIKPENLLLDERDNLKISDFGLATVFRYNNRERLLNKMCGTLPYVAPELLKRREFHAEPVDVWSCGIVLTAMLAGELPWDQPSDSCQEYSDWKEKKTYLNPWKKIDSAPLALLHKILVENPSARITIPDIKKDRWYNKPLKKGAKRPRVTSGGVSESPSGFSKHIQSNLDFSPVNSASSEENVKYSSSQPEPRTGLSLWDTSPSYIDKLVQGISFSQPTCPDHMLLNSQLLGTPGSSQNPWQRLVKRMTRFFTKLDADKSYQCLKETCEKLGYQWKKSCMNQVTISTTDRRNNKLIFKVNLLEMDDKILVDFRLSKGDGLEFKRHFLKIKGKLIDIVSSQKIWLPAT", "type": "functional"}, "[13]": {"target": "Cyclin-dependent kinase 5 (Homo sapiens, UniProt Q00535)", "sequence (Q00535 whole entry)": "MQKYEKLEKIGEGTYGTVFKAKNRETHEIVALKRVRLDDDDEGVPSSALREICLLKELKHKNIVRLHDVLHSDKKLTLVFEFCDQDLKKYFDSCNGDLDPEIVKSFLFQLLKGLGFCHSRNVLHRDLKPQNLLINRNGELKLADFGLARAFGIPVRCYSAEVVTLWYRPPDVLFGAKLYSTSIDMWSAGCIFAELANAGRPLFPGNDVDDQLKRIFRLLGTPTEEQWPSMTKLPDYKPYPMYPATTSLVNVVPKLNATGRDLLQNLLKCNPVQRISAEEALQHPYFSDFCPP", "type": "functional"}, "[14]": {"target": "Dual specificity protein kinase CLK4 (Homo sapiens, UniProt Q9HAZ1)", "type": "functional"}, "[15]": {"target": "Serine/threonine-protein kinase D2 (Homo sapiens, UniProt Q9BZL6)", "sequence (Q9BZL6 whole entry)": "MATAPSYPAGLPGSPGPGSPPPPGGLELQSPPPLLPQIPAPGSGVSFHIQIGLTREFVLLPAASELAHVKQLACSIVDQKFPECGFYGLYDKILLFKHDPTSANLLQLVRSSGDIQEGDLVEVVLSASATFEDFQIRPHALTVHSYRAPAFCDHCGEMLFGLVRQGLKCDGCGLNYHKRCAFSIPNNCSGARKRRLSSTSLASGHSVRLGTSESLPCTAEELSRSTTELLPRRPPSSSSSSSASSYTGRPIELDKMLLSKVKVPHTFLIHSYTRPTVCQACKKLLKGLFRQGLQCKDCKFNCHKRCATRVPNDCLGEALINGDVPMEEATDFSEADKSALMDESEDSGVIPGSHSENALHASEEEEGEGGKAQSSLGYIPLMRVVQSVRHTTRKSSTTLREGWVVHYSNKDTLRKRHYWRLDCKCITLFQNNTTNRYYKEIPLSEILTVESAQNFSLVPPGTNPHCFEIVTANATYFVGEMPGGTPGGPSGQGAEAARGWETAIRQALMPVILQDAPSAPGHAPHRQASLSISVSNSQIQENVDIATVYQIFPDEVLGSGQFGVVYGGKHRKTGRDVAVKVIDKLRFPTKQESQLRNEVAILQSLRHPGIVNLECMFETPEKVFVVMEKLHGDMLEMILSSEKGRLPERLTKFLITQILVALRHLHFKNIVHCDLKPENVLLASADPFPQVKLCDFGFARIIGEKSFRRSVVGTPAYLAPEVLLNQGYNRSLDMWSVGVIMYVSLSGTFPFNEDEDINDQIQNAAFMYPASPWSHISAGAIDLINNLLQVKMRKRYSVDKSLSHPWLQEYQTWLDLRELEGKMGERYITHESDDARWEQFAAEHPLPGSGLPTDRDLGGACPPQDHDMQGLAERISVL", "type": "functional"}, "[16]": {"target": "Protein kinase C gamma type (Homo sapiens, UniProt P05129)", "type": "functional"}, "[17]": {"target": "MAP kinase-activated protein kinase 3 (Homo sapiens, UniProt Q16644)", "type": "functional"}, "[18]": {"target": "G protein-coupled receptor kinase 5 (Homo sapiens, UniProt P34947)", "sequence (P34947 whole entry)": "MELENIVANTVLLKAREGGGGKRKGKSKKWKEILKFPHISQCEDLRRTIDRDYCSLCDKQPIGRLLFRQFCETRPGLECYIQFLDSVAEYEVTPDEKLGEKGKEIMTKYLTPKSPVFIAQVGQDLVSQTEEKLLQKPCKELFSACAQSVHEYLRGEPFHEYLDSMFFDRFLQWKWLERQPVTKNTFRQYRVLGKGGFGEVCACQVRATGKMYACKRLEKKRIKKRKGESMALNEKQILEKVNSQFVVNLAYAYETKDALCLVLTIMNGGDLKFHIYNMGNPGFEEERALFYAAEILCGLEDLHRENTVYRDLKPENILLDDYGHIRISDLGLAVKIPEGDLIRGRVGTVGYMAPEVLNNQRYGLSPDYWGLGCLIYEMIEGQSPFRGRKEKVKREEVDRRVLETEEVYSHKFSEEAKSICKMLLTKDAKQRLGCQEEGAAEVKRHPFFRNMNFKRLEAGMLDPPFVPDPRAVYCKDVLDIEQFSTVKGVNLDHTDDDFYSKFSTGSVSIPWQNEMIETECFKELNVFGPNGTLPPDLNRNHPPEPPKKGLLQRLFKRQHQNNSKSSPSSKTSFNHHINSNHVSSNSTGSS", "test": "Navigating the Kinome. Panel member name: GPRK5", "type": "functional"}, "[19]": {"target": "Mitogen-activated protein kinase kinase kinase 10 (Homo sapiens, UniProt Q02779)", "test": "Navigating the Kinome. Panel member name: MAP3K10", "type": "functional"}}, "note": "Active and inactive are the calls of the source.", "data": [{"smiles": "O=C(N/N=C/c1ccc(-c2ccc([N+](=O)[O-])cc2)o1)c1cccnc1", "values": [{"measurement": "EC50", "setting": "[1]", "result": "> 300 µM (not active)"}, {"measurement": "EC50", "setting": "[2]", "result": "27.4 µM (active)"}, {"measurement": "IC50", "setting": "[3]", "result": "28.6 µM (active)"}, {"measurement": "IC50", "setting": "[4]", "result": "> 100 µM (inactive)"}, {"measurement": "IC50", "setting": "Prothrombin", "result": "19.8 µM (active)"}]}, {"smiles": "CCn1c(=O)c2ccccc2n2c(COc3ccc4c(C(F)(F)F)cc(=O)oc4c3)nnc12", "values": [{"measurement": "IC50", "setting": "[5]", "result": "> 99 µM (inactive)"}, {"measurement": "IC50", "setting": "[6]", "result": "> 99 µM (inactive)"}]}, {"smiles": "Nc1nc(Nc2ccccc2)nc(NC2CCCCC2)c1[N+](=O)[O-]", "values": [{"measurement": "EC50", "setting": "[7]", "result": "6.85 µM (active)"}, {"measurement": "EC50", "setting": "Streptokinase A", "result": "> 150 µM (not active)"}, {"measurement": "EC50", "setting": "Streptococcus", "result": "8.07 µM (active)"}, {"measurement": "AC50", "setting": "[8]", "result": "4.62 µM (active)"}, {"measurement": "AC50", "setting": "[9]", "result": "2.6 µM (active)"}, {"measurement": "AC50", "setting": "[10]", "result": "1.04 µM (active)"}, {"measurement": "AC50", "setting": "[11]", "result": "2.36 µM (active)"}]}, {"smiles": "O=[N+]([O-])c1ccc2[nH]c(-c3ccco3)nc2c1", "values": [{"measurement": "Ki", "setting": "LIM domain kinase 1", "result": "3.16 µM (active)"}, {"measurement": "Ki", "setting": "[12]", "result": "2.51 µM (active)"}, {"measurement": "Ki", "setting": "[13]", "result": "2.51 µM (active)"}, {"measurement": "Ki", "setting": "[14]", "result": "1.58 µM (active)"}]}, {"smiles": "O=C(O)c1ccc(Nc2ncc3c(n2)-c2ccc(Cl)cc2C(c2c(F)cccc2F)=NC3)cc1", "note": "[MLN-8054]", "values": [{"measurement": "Ki", "setting": "[15]", "result": "> 10 µM (inactive)"}, {"measurement": "Ki", "setting": "[16]", "result": "> 7.94 µM (inactive)"}, {"measurement": "Ki", "setting": "[17]", "result": "> 10 µM (inactive)"}, {"measurement": "Ki", "setting": "[18]", "result": "1 µM (active)"}, {"measurement": "Ki", "setting": "[19]", "result": "> 3.16 µM (inactive)"}]}]}
